Test results from patent publication US4728509A, “Aqueous liquid preparation” (Takeda Chemical Industries, Ltd., priority 1985, dated 1988).
Converted amounts (≈) assume the structure as drawn. Read-outs that look alike come from different tables or passages of the source.

Columns and labels:
[1] = Solubility test of compound (a) with and without solubilizers (Experimental Example 1; HPLC of filtrate); conditions: phosphate buffer, Solubility of Compound (a), 48 hours
Method: Solubility tests of the compound (a) (2-amino-7-isopropyl-5-oxo-5H-[1]-benzopyrano[2,3-b]pyridine-3-carboxylic acid) employing the solubilizers of this invention and, for comparison, employing various conventional solubilizers were performed.
The solubility was measured by the following manner:
An excess amount of the compound (a) was added to a given volume of a phosphate buffer, the mixture was sufficiently stirred, then the pH was adjusted to a given level, the mixture was allowed to stand at room temperature (25° C.) for 48 hours, the resultant was subjected to filtration with 0.45μ membrane filter, followed by measuring the concentration of the compound (a) in the filtrate by means of high performance liquid chromatography.

[2] = Stability test of compound (a) in solution, remaining ratio at 60° C. (Experimental Example 2); assay type: physicochemical; conditions: phosphate buffer, pH 7.5±0.1; for remaining at 1344 h: 60° C. after 8 weeks
Method: The stability of the compound (a) was tested by the following manner.
At first, the stability of the compound (a) without any adjuvant was tested for comparison.
Two samples were prepared by dissolving 100 mg and 250 mg each portion of the compound (a) in phosphate buffer. To each of the solutions was added a solution of sodium hydroxide to adjust the pH to 7.5±0.1, followed by addition of purified water to make the whole volume 100 ml, provided that the solution of 2.5 mg/ml was prepared at 40° C. Each solution was filled in a glass bottle, which was stored at 60° C. for evaluation of the stability.
The results were shown in Table 2 as remaining ratio (%).
Next, the effect of improving the stability of the compound (a), when a solubilizer of this invention was added to the solution containing the compound (a), was examined.
To each sample was added a given amount of a solubilizer as specified in the table, followed by working up in a similar manner to the above (pH 7.5±0.1) for evaluation of the stability.
The results were shown in Table 3 as remaining ratio (%).

[3] = Solubility of compound (a); assay type: physicochemical

Compound: CC(C)c1ccc2oc3nc(N)c(C(=O)O)cc3c(=O)c2c1 [Compound (a), 2-amino-7-isopropyl-5-oxo-5H-[1]-benzopyrano[2,3-b]pyridine-3-carboxylic acid]
- solubility at 48 h ([1]; pH 6, aqueous buffer, Caffeine 5 mg/ml, pH 6.0, 25° C.): 660 µg/mL (≈ 2.21 mM)
- solubility at 48 h ([1]; pH 6, aqueous buffer, Caffeine 10 mg/ml, pH 6.0, 25° C.): 1650 µg/mL (≈ 5.53 mM)
- solubility at 48 h ([1]; pH 6, aqueous buffer, Control, no solubilizer, pH 6.0, 25° C.): 20 µg/mL (≈ 0.067 mM)
- solubility at 48 h ([1]; pH 6, aqueous buffer, Polyvinylpyrrolidone (average molecular weight 40000) 10 mg/ml, pH 6.0, 25° C.): 120 µg/mL (≈ 0.402 mM)
- solubility at 48 h ([1]; pH 6, aqueous buffer, Polyvinylpyrrolidone (average molecular weight 40000) 50 mg/ml, pH 6.0, 25° C.): 320 µg/mL (≈ 1.07 mM)
- solubility at 48 h ([1]; pH 6, aqueous buffer, Polyvinylpyrrolidone (average molecular weight 40000) 100 mg/ml, pH 6.0, 25° C.): 1590 µg/mL (≈ 5.33 mM)
- solubility at 48 h ([1]; pH 6, aqueous buffer, Sodium benzoate 20 mg/ml, pH 6.0, 25° C.): 40 µg/mL (≈ 0.134 mM)
- solubility at 48 h ([1]; pH 6, aqueous buffer, Tween 80 10 mg/ml, pH 6.0, 25° C.): 80 µg/mL (≈ 0.268 mM)
- solubility at 48 h ([1]; pH 6, aqueous buffer, β-Cyclodextrin 10 mg/ml, pH 6.0, 25° C.): 720 µg/mL (≈ 2.41 mM)
- solubility at 48 h ([1]; pH 6.5, aqueous buffer, Caffeine 5 mg/ml, pH 6.5, 25° C.): 1500 µg/mL (≈ 5.03 mM)
- solubility at 48 h ([1]; pH 6.5, aqueous buffer, Caffeine 10 mg/ml, pH 6.5, 25° C.): 2670 µg/mL (≈ 8.95 mM)
- solubility at 48 h ([1]; pH 6.5, aqueous buffer, Control, no solubilizer, pH 6.5, 25° C.): 80 µg/mL (≈ 0.268 mM)
- solubility at 48 h ([1]; pH 6.5, aqueous buffer, Isoniazid 10 mg/ml, pH 6.5, 25° C.): 850 µg/mL (≈ 2.85 mM)
- solubility at 48 h ([1]; pH 6.5, aqueous buffer, Nicotinic acid amide 10 mg/ml, pH 6.5, 25° C.): 820 µg/mL (≈ 2.75 mM)
- solubility at 48 h ([1]; pH 6.5, aqueous buffer, Polyvinylpyrrolidone (average molecular weight 40000) 10 mg/ml, pH 6.5, 25° C.): 420 µg/mL (≈ 1.41 mM)
- solubility at 48 h ([1]; pH 6.5, aqueous buffer, Polyvinylpyrrolidone (average molecular weight 40000) 50 mg/ml, pH 6.5, 25° C.): 1230 µg/mL (≈ 4.12 mM)
- solubility at 48 h ([1]; pH 6.5, aqueous buffer, Polyvinylpyrrolidone (average molecular weight 40000) 100 mg/ml, pH 6.5, 25° C.): 4630 µg/mL (≈ 15.5 mM)
- solubility at 48 h ([1]; pH 6.5, aqueous buffer, Sodium benzoate 20 mg/ml, pH 6.5, 25° C.): 290 µg/mL (≈ 0.972 mM)
- solubility at 48 h ([1]; pH 6.5, aqueous buffer, Tween 80 10 mg/ml, pH 6.5, 25° C.): 470 µg/mL (≈ 1.58 mM)
- solubility at 48 h ([1]; pH 6.5, aqueous buffer, β-Cyclodextrin 10 mg/ml, pH 6.5, 25° C.): 1400 µg/mL (≈ 4.69 mM)
- solubility at 48 h ([1]; pH 7, aqueous buffer, Caffeine 5 mg/ml, pH 7.0, 25° C.): 3720 µg/mL (≈ 12.5 mM)
- solubility at 48 h ([1]; pH 7, aqueous buffer, Caffeine 10 mg/ml, pH 7.0, 25° C.): 7050 µg/mL (≈ 23.6 mM)
- solubility at 48 h ([1]; pH 7, aqueous buffer, Control, no solubilizer, pH 7.0, 25° C.): 330 µg/mL (≈ 1.11 mM)
- solubility at 48 h ([1]; pH 7, aqueous buffer, Isoniazid 10 mg/ml, pH 7.0, 25° C.): 1330 µg/mL (≈ 4.46 mM)
- solubility at 48 h ([1]; pH 7, aqueous buffer, Nicotinic acid amide 10 mg/ml, pH 7.0, 25° C.): 1210 µg/mL (≈ 4.06 mM)
- solubility at 48 h ([1]; pH 7, aqueous buffer, Polyvinylpyrrolidone (average molecular weight 40000) 10 mg/ml, pH 7.0, 25° C.): 1060 µg/mL (≈ 3.55 mM)
- solubility at 48 h ([1]; pH 7, aqueous buffer, Polyvinylpyrrolidone (average molecular weight 40000) 50 mg/ml, pH 7.0, 25° C.): 3230 µg/mL (≈ 10.8 mM)
- solubility at 48 h ([1]; pH 7, aqueous buffer, Polyvinylpyrrolidone (average molecular weight 40000) 100 mg/ml, pH 7.0, 25° C.): 10000 µg/mL (≈ 33.7 mM)
- solubility at 48 h ([1]; pH 7, aqueous buffer, Sodium benzoate 20 mg/ml, pH 7.0, 25° C.): 420 µg/mL (≈ 1.41 mM)
- solubility at 48 h ([1]; pH 7, aqueous buffer, β-Cyclodextrin 10 mg/ml, pH 7.0, 25° C.): 2300 µg/mL (≈ 7.71 mM)
- solubility at 48 h ([1]; pH 7.5, aqueous buffer, Caffeine 5 mg/ml, pH 7.5, 25° C.): 7440 µg/mL (≈ 24.9 mM)
- solubility at 48 h ([1]; pH 7.5, aqueous buffer, Caffeine 10 mg/ml, pH 7.5, 25° C.): 9210 µg/mL (≈ 30.9 mM)
- solubility at 48 h ([1]; pH 7.5, aqueous buffer, Control, no solubilizer, pH 7.5, 25° C.): 1050 µg/mL (≈ 3.52 mM)
- solubility at 48 h ([1]; pH 7.5, aqueous buffer, Isoniazid 10 mg/ml, pH 7.5, 25° C.): 1560 µg/mL (≈ 5.23 mM)
- solubility at 48 h ([1]; pH 7.5, aqueous buffer, Nicotinic acid amide 10 mg/ml, pH 7.5, 25° C.): 1530 µg/mL (≈ 5.13 mM)
- solubility at 48 h ([1]; pH 7.5, aqueous buffer, Polyvinylpyrrolidone (average molecular weight 40000) 10 mg/ml, pH 7.5, 25° C.): 3150 µg/mL (≈ 10.6 mM)
- solubility at 48 h ([1]; pH 7.5, aqueous buffer, Polyvinylpyrrolidone (average molecular weight 40000) 50 mg/ml, pH 7.5, 25° C.): 10400 µg/mL (≈ 34.7 mM)
- solubility at 48 h ([1]; pH 7.5, aqueous buffer, Polyvinylpyrrolidone (average molecular weight 40000) 100 mg/ml, pH 7.5, 25° C.): 18500 µg/mL (≈ 61.9 mM)
- solubility at 48 h ([1]; pH 7.5, aqueous buffer, Sodium benzoate 20 mg/ml, pH 7.5, 25° C.): 1060 µg/mL (≈ 3.55 mM)
- solubility at 48 h ([1]; pH 7.5, aqueous buffer, Tween 80 10 mg/ml, pH 7.5, 25° C.): 1180 µg/mL (≈ 3.96 mM)
- solubility at 48 h ([1]; pH 7.5, aqueous buffer, β-Cyclodextrin 10 mg/ml, pH 7.5, 25° C.): 4390 µg/mL (≈ 14.7 mM)
- remaining at 168 h ([2]; pH 7.5, compound (a) 1.0 mg/ml, PVP (MW 40,000) 20 mg/ml, 60° C. after 1 week): 99.5%
- remaining at 336 h ([2]; pH 7.5, compound (a) 1.0 mg/ml, PVP (MW 40,000) 20 mg/ml, 60° C. after 2 weeks): 99.2%
- remaining at 672 h ([2]; pH 7.5, compound (a) 1.0 mg/ml, PVP (MW 40,000) 20 mg/ml, 60° C. after 4 weeks): 98.4%
- remaining at 1344 h ([2]; pH 7.5, compound (a) 1.0 mg/ml, PVP (MW 40,000) 20 mg/ml): 98.1%
- remaining at 168 h ([2]; pH 7.5, compound (a) 2.5 mg/ml, PVP (MW 40,000) 50 mg/ml, 60° C. after 1 week): 98.9%
- remaining at 336 h ([2]; pH 7.5, compound (a) 2.5 mg/ml, PVP (MW 40,000) 50 mg/ml, 60° C. after 2 weeks): 99.5%
- remaining at 672 h ([2]; pH 7.5, compound (a) 2.5 mg/ml, PVP (MW 40,000) 50 mg/ml, 60° C. after 4 weeks): 99.1%
- remaining at 1344 h ([2]; pH 7.5, compound (a) 2.5 mg/ml, PVP (MW 40,000) 50 mg/ml): 97%
- remaining at 168 h ([2]; pH 7.5, compound (a) 5.0 mg/ml, PVP (MW 40,000) 10 mg/ml + caffeine 10 mg/ml, 60° C. after 1 week): 98.9%
- remaining at 336 h ([2]; pH 7.5, compound (a) 5.0 mg/ml, PVP (MW 40,000) 10 mg/ml + caffeine 10 mg/ml, 60° C. after 2 weeks): 99.5%
- remaining at 672 h ([2]; pH 7.5, compound (a) 5.0 mg/ml, PVP (MW 40,000) 10 mg/ml + caffeine 10 mg/ml, 60° C. after 4 weeks): 98.1%
- remaining at 1344 h ([2]; pH 7.5, compound (a) 5.0 mg/ml, PVP (MW 40,000) 10 mg/ml + caffeine 10 mg/ml): 98.2%
- remaining at 168 h ([2]; pH 7.5, compound (a) 10.0 mg/ml, PVP (MW 40,000) 50 mg/ml + β-CD 10 mg/ml, 60° C. after 1 week): 98.7%
- remaining at 336 h ([2]; pH 7.5, compound (a) 10.0 mg/ml, PVP (MW 40,000) 50 mg/ml + β-CD 10 mg/ml, 60° C. after 2 weeks): 100%
- remaining at 672 h ([2]; pH 7.5, compound (a) 10.0 mg/ml, PVP (MW 40,000) 50 mg/ml + β-CD 10 mg/ml, 60° C. after 4 weeks): 98.3%
- remaining at 1344 h ([2]; pH 7.5, compound (a) 10.0 mg/ml, PVP (MW 40,000) 50 mg/ml + β-CD 10 mg/ml): 97.3%
- remaining at 672 h ([2]; pH 7.5, no adjuvant, compound (a) 1.0 mg/ml, 60° C. after four weeks): 85.4%
- remaining at 168 h ([2]; pH 7.5, no adjuvant, compound (a) 1.0 mg/ml, 60° C. after one week): 99.2%
- remaining at 336 h ([2]; pH 7.5, no adjuvant, compound (a) 1.0 mg/ml, 60° C. after two weeks): 97.2%
- remaining at 672 h ([2]; pH 7.5, no adjuvant, compound (a) 2.5 mg/ml, 60° C. after four weeks): 66.8%
- remaining at 168 h ([2]; pH 7.5, no adjuvant, compound (a) 2.5 mg/ml, 60° C. after one week): 92.1%
- remaining at 336 h ([2]; pH 7.5, no adjuvant, compound (a) 2.5 mg/ml, 60° C. after two weeks): 80.5%
- amount of compound (a) dissolved by the aqueous liquid preparation of this invention ([3]; aqueous liquid preparation of this invention, pH 7.2-7.8): ≥ 3 mg/mL
- solubility ([3]; neutral to alkaline region (pH 7.2-7.8), read-out: solubility): ~1100 µg/mL (≈ 3.69 mM)
- solubility ([3]; water, 25° C., read-out: solubility in water): ~10 µg/mL (≈ 0.0335 mM)
- solubility ([3]; water, pH 7.5, cold chamber (5° C.), read-out: solubility in water): 300 µg/mL (≈ 1.01 mM)
